Here are results for 3 molecules from ChEMBL document CHEMBL1158536, “How well can the Caco-2/Madin-Darby canine kidney models predict effective human jejunal permeability?” (J Med Chem, 2010).

Series [1] is described as follows: Absolute bioavailability in human. In kind it is ADME, organism-based. Particulars: in vivo.
The conditions of series [2]: caco-2.
Series [3] is described as follows: Dissociation constant, pKa of the compound. Format: physicochemical.
For series [4] the following is noted: human.
Series [5] is described as follows: Octanol-water partition coefficient, log P of the compound. Particulars: read-out: logP. In kind it is physicochemical.

The bioavailability is dose-corrected exposure relative to a reference, in per cent. Low readings indicate poor availability, high ones good availability. In general, pKa refers to the negative logarithm of the acid dissociation constant. A higher pKa goes with a weaker acid or stronger base. One may read the logP as the decadic logarithm of the partition coefficient of the neutral form, usually between octanol and water.

The structures appear in SMILES notation.

Turning to `CC(=O)Nc1ccc(O)cc1` [ACETAMINOPHEN], the bioavailability in series [1] was 85%. For the same molecule, the Daq in series [2] is 10.2 ×10⁻⁶ cm2/s. In series [3], this molecule registered a pKa of 9.63. The permeability in series [4] was determined as 1.76 ×10⁻⁴ cm/s.

In turn, `Cc1cc(=O)n(-c2ccccc2)n1C` [ANTIPYRINE] yielded a bioavailability in series [1] of 99%. Moreover, the Daq in series [2] is 9.2 ×10⁻⁶ cm2/s. The pKa in series [3] came to 1.3. Also, the permeability in series [4] is listed as 2.07 ×10⁻⁴ cm/s.

In series [1], `C[S+]([O-])CCCCN=C=S` (configuration not stated) [SULFORAPHANE] had a bioavailability of 74%. In addition, the Daq in series [2] was 9.5 ×10⁻⁶ cm2/s. The permeability in series [4] came out at 18.7 ×10⁻⁴ cm/s. The logP in series [5] came to 1.68.
